The target of experiment [1] is BCL-2 binding to biotinylated BAD peptide (Homo sapiens, UniProt P10415). Kind of experiment: SPR (Biacore) solution inhibition assay, BCL-2 binding to BAD peptide surface. Particulars: read-out: BCL2_SPR IC50 BAD. An excerpt:
(§1) The present method includes utility of a Surface plasmon resonance (SPR)-based biosensor (Biacore™, GE Healthcare, Uppsala, Sweden) to characterize BCL-2 inhibitors.
(§2) Biacore™ utilizes the phenomenon of surface plasmon resonance (SPR) to detect and measure binding interactions. In a typical Biacore experiment, one of the interacting molecules (ligand) is immobilized on a flexible dextran matrix while the interacting partner (analyte) is allowed to flow across that surface. A binding interaction results in an increase in mass on the sensor surface and a corresponding direct change in the refractive index of the medium in the vicinity of the sensor surface. Changes in refractive index or signal are recorded in resonance units (R.U.) Signal changes due to association and dissociation of complexes are monitored in a non-invasive manner, continuously and in real-time, the results of which are reported in the form of a sensorgram.
(§3) The SPR assay is configured to examine solution inhibition of BCL-2 binding to peptide derivatized sensor surfaces to generate IC50 values as a measure of inhibitor potency.
(§4) Biacore™ A100 (GE Healthcare, Uppsala, Sweden) was used to conduct all experiments reported herein. Sensor surface preparation and all interaction analyses experiments were performed at 25° C. Reagents were purchased from GE Healthcare. Running buffer containing 10 mM Hepes, pH7.4, 150 mM sodium chloride, 1.25 mM Dithiothreitol, 3% Dimethyl sulfoxide and 0.05% polysorbate 20 were utilized throughout all analyses.
(§5) Biotinylated BAK, BAD and NOXA peptides were diluted to 10 nM in running buffer and captured onto a sensor surface pre-derivatized with streptavidin (sensor chip SA) to peptide surface densities in the range 50-100 R.U. Peptide captured surfaces were blocked with 500 μM PEO2-Biotin.
(§6) Interaction analyses were performed by first equilibrating each sample within a 6 point three fold compound dilution series in the range 16 μM to […] with 56 nM BCL-2 for one hour during instrument start-up procedures. Protein compound mixtures were then injected over each peptide surface in parallel for 60 seconds at a flow-rate of 30 μL/min. 56 nM BCL-2 control samples were also prepared and run at regular intervals during the assay. Surface regeneration was performed at the end of each analysis cycle by two 30 second injections of 10 mM Glycine, pH 2.5, 1M Sodium Chloride, 0.05% polysorbate 20. Samples and control compound samples were run in duplicate and controls are also run at regular intervals during the assay to monitor surface and assay performance.
(§7) Data analyses are carried out using Biacore™ A100 evaluation software v1.1 to validate assay quality. Binding level report points were used relative to BCL-2 control samples to calculate % inhibition values for each compound protein mixture. […] The range of data shown in table 1 represents the high and low IC50 values obtained from multiple experiments.
In general terms: Surface plasmon resonance follows binding to a sensor surface in real time, without labels.

Experiment [2] deals with BCL-2 binding to biotinylated BAK peptide (Homo sapiens, UniProt P10415). Kind of experiment: SPR (Biacore) solution inhibition assay, BCL-2 binding to BAK peptide surface. Conditions: read-out: BCL2_SPR IC50 BAK.
BCL-2 binding to biotinylated BAK peptide, sequence (P10415 whole entry): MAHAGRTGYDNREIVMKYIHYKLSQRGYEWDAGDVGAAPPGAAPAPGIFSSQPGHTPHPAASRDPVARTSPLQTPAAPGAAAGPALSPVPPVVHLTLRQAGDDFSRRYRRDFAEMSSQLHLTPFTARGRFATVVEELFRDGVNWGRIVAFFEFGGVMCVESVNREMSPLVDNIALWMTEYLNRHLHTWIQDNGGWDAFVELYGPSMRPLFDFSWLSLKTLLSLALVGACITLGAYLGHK
Source text: as §1, §2, §3, §4, §5, §6, §7

BCL-2 binding to biotinylated BAD peptide, sequence (P10415 whole entry): as above

In general, IC50 refers to the concentration at which inhibition is half-maximal. Turning to `CCCCN(CCCC)C(=O)c1cc(C)n(-c2ccc(NC(=O)NCc3ccc(Cl)cc3)cc2C(=O)N2Cc3ccccc3C[C@H]2CO)n1` [Example 8], the IC50 in experiment [1] was 156 to 165 nM; in experiment [2], 140 to 149 nM.

Take `CCCCN(CCCC)C(=O)c1cc(C)n(-c2ccc(NC(=O)NCC)cc2C(=O)N2Cc3ccccc3C[C@H]2CO)n1` [Example 2]: the IC50 lay in the range of 582 to 618 nM in experiment [1] and 404 to 430 nM in experiment [2].

With `CCCCN(CCCC)C(=O)c1cc(C)n(-c2ccc(NC(=O)Nc3cccc(Cl)c3C)cc2C(=O)N2Cc3ccccc3C[C@H]2CO)n1` [Example 33], the IC50 in experiment [1] lay within 440 to 448 nM; in experiment [2], 337 to 378 nM.

As for `CCCCN(CCCC)C(=O)c1cc(C)n(-c2ccc(NC(=O)N[C@H](C)c3ccc(OC)cc3)cc2C(=O)N2Cc3ccccc3C[C@H]2CO)n1` [Example 19], the figures for the IC50 in experiment [1] and in experiment [2] were 725 to 805 nM and 736 to 857 nM, respectively.

Take `CCCCN(CCCC)C(=O)c1cc(C)n(-c2ccc(NC(=O)NCCc3ccccc3)cc2C(=O)N2Cc3ccccc3C[C@H]2CO)n1` [Example 15]: the half-maximal inhibitory concentration (IC50) in experiment [1] was in the range of 150 to 157 nM.

Consider `CCCCN(CCCC)C(=O)c1cc(C)n(-c2ccc(NC(=O)Nc3ccc(SC)cc3)cc2C(=O)N2Cc3ccccc3C[C@H]2CO)n1` [Example 16], for which the IC50 lay in the range of 786 to 983 nM in experiment [1] and 812 to 962 nM in experiment [2].

For the molecule `CCCCN(CCCC)C(=O)c1cc(C)n(-c2ccc(NC(=O)NCc3ccccc3Cl)cc2C(=O)N2Cc3ccccc3C[C@H]2CO)n1` [Example 7], the IC50 in experiment [1] was 103 to 107 nM; in experiment [2], 86.3 to 94.2 nM.

For `CCCCN(CCCC)C(=O)c1cc(C)n(-c2ccc(NC(=O)N[C@@H](C)c3ccccc3)cc2C(=O)N2Cc3ccccc3C[C@H]2CO)n1` [Example 4], the half-maximal inhibitory concentration (IC50) lay within 86.3 to 91.3 nM in experiment [1] and 73.1 to 75.7 nM in experiment [2].

As to `CCCCN(CCCC)C(=O)c1cc(C)n(-c2ccc(NC(=O)Nc3ccccc3Cc3ccccc3)cc2C(=O)N2Cc3ccccc3C[C@H]2CO)n1` [Example 39], the figures for the IC50 in experiment [1] and in experiment [2] were 766 to 845 nM and 667 to 676 nM, respectively.

Regarding `CCCCN(CCCC)C(=O)c1cc(C)n(-c2ccc(NC(=O)Nc3ccc(-c4ccccc4)cc3)cc2C(=O)N2Cc3ccccc3C[C@H]2CO)n1` [Example 18], the IC50 in experiment [1] was 1730 to 1760 nM; in experiment [2], 1950 to 2010 nM.

On to `CCCCN(CCCC)C(=O)c1cc(C)n(-c2ccc(NC(=O)NC3CCCC3)cc2C(=O)N2Cc3ccccc3C[C@H]2CO)n1` [Example 32], for which the IC50 in experiment [1] fell in the range of 445 to 463 nM; in experiment [2], 279 to 284 nM.

As to `CCCCN(CCCC)C(=O)c1cc(C)n(-c2ccc(NC(=O)NC(C)C)cc2C(=O)N2Cc3ccccc3C[C@H]2CO)n1` [Example 14], the IC50 fell in the range of 494 to 509 nM in experiment [1] and 343 to 356 nM in experiment [2].

`CCCCN(CCCC)C(=O)c1cc(C)n(-c2ccc(NC(=O)Nc3ccccc3OCC)cc2C(=O)N2Cc3ccccc3C[C@H]2CO)n1` [Example 28]: the IC50 lay in the range of 508 to 697 nM in experiment [1] and 551 to 618 nM in experiment [2].

With `CCCCN(CCCC)C(=O)c1cc(C)n(-c2ccc(NC(=O)N[C@H](C)c3ccccc3)cc2C(=O)N2Cc3ccccc3C[C@H]2CO)n1` [Example 9], the IC50 in experiment [1] fell in the range of 334 to 357 nM; in experiment [2] it was 250 to 273 nM.

As for `CCCCN(CCCC)C(=O)c1cc(C)n(-c2ccc(NC(=O)Nc3cc(F)cc(F)c3)cc2C(=O)N2Cc3ccccc3C[C@H]2CO)n1` [Example 37], the half-inhibitory concentration (IC50) fell in the range of 4060 to 4280 nM in experiment [1] and 3760 to 3780 nM in experiment [2].

On to `CCCCN(CCCC)C(=O)c1cc(C)n(-c2ccc(NC(=O)Nc3ccccc3OC(F)(F)F)cc2C(=O)N2Cc3ccccc3C[C@H]2CO)n1` [Example 41], for which the IC50 in experiment [1] lay in the range of 923 to 969 nM; in experiment [2] it was 888 to 970 nM.

`CCCCN(CCCC)C(=O)c1cc(C)n(-c2ccc(NC(=O)N[C@@H]3C[C@H]3c3ccccc3)cc2C(=O)N2Cc3ccccc3C[C@H]2CO)n1` [Example 13]: the IC50 in experiment [1] was > 16000 nM; in experiment [2] it was 8770 to 9190 nM.

With `CCCCN(CCCC)C(=O)c1cc(C)n(-c2ccc(NC(=O)N[C@@H](C)c3cccc(OC)c3)cc2C(=O)N2Cc3ccccc3C[C@H]2CO)n1` [Example 23], the half-maximal inhibitory concentration (IC50) lay in the range of 45.5 to 46.7 nM in experiment [1] and 37 to 41.7 nM in experiment [2].

In the case of `CCCCN(CCCC)C(=O)c1cc(C)n(-c2ccc(NC(=O)N[C@@H](C)c3ccc(OC)cc3)cc2C(=O)N2Cc3ccccc3C[C@H]2CO)n1` [Example 20], the IC50 in experiment [1] fell in the range of 71.1 to 75.4 nM; in experiment [2], 69 to 80.5 nM.

For `CCCCN(CCCC)C(=O)c1cc(C)n(-c2ccc(NC(=O)NCc3ccc(OC)cc3)cc2C(=O)N2Cc3ccccc3C[C@H]2CO)n1` [Example 6], the results for the IC50 in experiment [1] and in experiment [2] were 108 to 117 nM and 83.6 to 89.2 nM, respectively.

Take `CCCCN(CCCC)C(=O)c1cc(C)n(-c2ccc(NC(=O)Nc3ccc4ccccc4c3)cc2C(=O)N2Cc3ccccc3C[C@H]2CO)n1` [Example 29]: the IC50 in experiment [1] lay within 2430 to 2560 nM; in experiment [2], 1840 to 2440 nM.

As to `CCCCN(CCCC)C(=O)c1cc(C)n(-c2ccc(NC(=O)Nc3ccc(C#N)cc3)cc2C(=O)N2Cc3ccccc3C[C@H]2CO)n1` [Example 22], the half-inhibitory concentration (IC50) is 1840 to 2170 nM in experiment [1] and 1570 to 1730 nM in experiment [2].

Consider `CCCCN(CCCC)C(=O)c1cc(C)n(-c2ccc(NC(=O)Nc3ccc(OC)cc3C)cc2C(=O)N2Cc3ccccc3C[C@H]2CO)n1` [Example 25], for which the half-maximal inhibitory concentration (IC50) in experiment [1] fell in the range of 232 to 255 nM; in experiment [2], 143 to 177 nM.

For the molecule `CCCCN(CCCC)C(=O)c1cc(C)n(-c2ccc(NC(=O)Nc3ccc(F)c(C(F)(F)F)c3)cc2C(=O)N2Cc3ccccc3C[C@H]2CO)n1` [Example 11], the IC50 is 3020 to 3220 nM in experiment [1] and 2710 to 2770 nM in experiment [2].

Take `CCCCN(CCCC)C(=O)c1cc(C)n(-c2ccc(NC(=O)Nc3ccc(C)c(C)c3)cc2C(=O)N2Cc3ccccc3C[C@H]2CO)n1` [Example 10]: the 50% inhibitory concentration (IC50) in experiment [1] lay within 731 to 784 nM; in experiment [2], 624 to 639 nM.

As to `CCCCN(CCCC)C(=O)c1cc(C)n(-c2ccc(NC(=O)Nc3c(Cl)cccc3Cl)cc2C(=O)N2Cc3ccccc3C[C@H]2CO)n1` [Example 40], the results for the IC50 in experiment [1] and in experiment [2] were 204 to 303 nM and 197 to 224 nM, respectively.

Regarding `CCCCN(CCCC)C(=O)c1cc(C)n(-c2ccc(NC(=O)Nc3ccc(OC)c(OC)c3)cc2C(=O)N2Cc3ccccc3C[C@H]2CO)n1` [Example 38], the IC50 is 524 to 614 nM in experiment [1] and 384 to 417 nM in experiment [2].

Consider `CCCCN(CCCC)C(=O)c1cc(C)n(-c2ccc(NC(=O)Nc3ccc(Cl)cc3C)cc2C(=O)N2Cc3ccccc3C[C@H]2CO)n1` [Example 27], for which the IC50 in experiment [1] fell in the range of 900 to 962 nM; in experiment [2], 846 to 861 nM.

`CCCCN(CCCC)C(=O)c1cc(C)n(-c2ccc(NC(=O)Nc3cccc(OC)c3)cc2C(=O)N2Cc3ccccc3C[C@H]2CO)n1` [Example 3]: the half-inhibitory concentration (IC50) in experiment [1] lay within 894 to 1020 nM; in experiment [2], 806 to 893 nM.

Turning to `CCCCN(CCCC)C(=O)c1cc(C)n(-c2ccc(NC(=O)Nc3cc(Cl)cc(Cl)c3)cc2C(=O)N2Cc3ccccc3C[C@H]2CO)n1` [Example 36], the IC50 in experiment [1] and in experiment [2] was > 16000 nM in each case.

On to `CCCCN(CCCC)C(=O)c1cc(C)n(-c2ccc(NC(=O)Nc3cccc(Cc4ccccc4)c3)cc2C(=O)N2Cc3ccccc3C[C@H]2CO)n1` [Example 31], for which the IC50 lay within 2320 to 2500 nM in experiment [1] and 1540 to 1580 nM in experiment [2].

Regarding `CCCCN(CCCC)C(=O)c1cc(C)n(-c2ccc(NC(=O)Nc3ccccc3OC)cc2C(=O)N2Cc3ccccc3C[C@H]2CO)n1` [Example 21], the IC50 in experiment [1] lay within 2640 to 3450 nM; in experiment [2] it was 2740 to 3150 nM.

In the case of `CCCCN(CCCC)C(=O)c1cc(C)n(-c2ccc(NC(=O)Nc3ccc(F)c(F)c3)cc2C(=O)N2Cc3ccccc3C[C@H]2CO)n1` [Example 35], the IC50 is 3200 to 3930 nM in experiment [1] and 3010 to 3070 nM in experiment [2].

`CCCCN(CCCC)C(=O)c1cc(C)n(-c2ccc(NC(=O)NCc3cccc(C)c3)cc2C(=O)N2Cc3ccccc3C[C@H]2CO)n1` [Example 17]: the IC50 in experiment [1] was 89 to 108 nM; in experiment [2] it was 85.1 to 85.9 nM.

`CCCCN(CCCC)C(=O)c1cc(C)n(-c2ccc(NC(=O)Nc3c(C)cccc3CC)cc2C(=O)N2Cc3ccccc3C[C@H]2CO)n1` [Example 34]: the IC50 in experiment [1] fell in the range of 618 to 713 nM; in experiment [2] it was 631 to 667 nM.

Regarding `CCCCN(CCCC)C(=O)c1cc(C)n(-c2ccc(NC(=O)Nc3ccccc3Oc3ccccc3)cc2C(=O)N2Cc3ccccc3C[C@H]2CO)n1` [Example 12], the IC50 in experiment [1] and in experiment [2] was > 16000 nM in each case.

The values are drawn from US20140357666A1, “COMPOUNDS FOR INHIBITING THE INTERACTION OF BCL2 WITH BINDING PARTNERS” (NOVARTIS AG, priority 2011, published 2014).
